Measured values: ChEMBL document CHEMBL1128071, “Rational design, synthesis, and X-ray structure of renin inhibitors with extended P1 sidechains” (Bioorg Med Chem Lett, 1995)

These molecules were tested against T1, Renin (Homo sapiens, UniProt P00797) (assay: Inhibition against recombinant human renin (rHR)).
T1 sequence (P00797 whole entry): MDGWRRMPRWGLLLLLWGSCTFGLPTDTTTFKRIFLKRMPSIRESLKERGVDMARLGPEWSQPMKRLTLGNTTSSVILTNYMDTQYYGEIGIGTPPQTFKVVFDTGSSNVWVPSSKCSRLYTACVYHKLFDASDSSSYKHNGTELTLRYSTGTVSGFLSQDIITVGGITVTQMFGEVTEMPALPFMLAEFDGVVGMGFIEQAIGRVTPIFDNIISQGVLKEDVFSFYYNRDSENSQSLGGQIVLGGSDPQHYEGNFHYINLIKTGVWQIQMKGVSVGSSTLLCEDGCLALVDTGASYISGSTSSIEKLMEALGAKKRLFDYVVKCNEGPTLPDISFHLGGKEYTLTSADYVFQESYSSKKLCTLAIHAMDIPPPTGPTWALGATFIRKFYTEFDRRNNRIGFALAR

Row | Structure (SMILES) | IC50
1 | CSC[C@H](NC(=O)CNC(=O)N1CCC(=O)CC1)C(=O)N[C@@H](Cc1ccccc1)[C@@H](O)[C@@H](O)CC(C)C | 16 µM
2 | CSC[C@H](NC(C)=O)C(=O)N[C@@H](CC1CCCCC1)[C@@H](O)[C@@H](O)CC(C)C | 5.1 µM
3 | CSC[C@H](NC(C)=O)C(=O)N[C@@H](Cc1cccc(-c2ccccc2)c1)[C@@H](O)[C@@H](O)CC(C)C | 1.6 µM
4 | CSC[C@H](NC(=O)CNC(=O)N1CCC(=O)CC1)C(=O)N[C@@H](CC1CCCCC1)[C@@H](O)[C@@H](O)CC(C)C | 1.2 µM
5 | CSC[C@H](NC(C)=O)C(=O)N[C@@H](Cc1ccc(-c2ccccc2)cc1)[C@@H](O)[C@@H](O)CC(C)C | 1.1 µM
6 | CSC[C@H](NC(=O)CNC(=O)N1CCC(=O)CC1)C(=O)N[C@@H](Cc1ccc(-c2ccccc2)cc1)[C@@H](O)[C@@H](O)CC(C)C | 0.13 µM
7 | CSC[C@H](NC(=O)CNC(=O)N1CCC(=O)CC1)C(=O)N[C@@H](Cc1ccc(Oc2ccccc2)cc1)[C@@H](O)[C@@H](O)CC(C)C | 0.066 µM
8 | CSC[C@H](NC(=O)[C@H](Cc1ccccc1)NC(=O)N1CCC(=O)CC1)C(=O)N[C@@H](CC1CCCCC1)[C@@H](O)[C@@H](O)CC(C)C | 0.0003 µM
9 | CSC[C@H](NC(=O)CNC(=O)N1CCC(=O)CC1)C(=O)N[C@@H](Cc1cccc(-c2ccccc2)c1)[C@@H](O)[C@@H](O)CC(C)C | 0.11 µM
